According to article PMC7366380, “Discovery of a Potent and Selective Covalent Inhibitor and Activity-Based Probe for the Deubiquitylating Enzyme UCHL1, with Antifibrotic Activity” (Journal of the American Chemical Society, 2020):
“And” between values parts separate entries of the source, which are not always exact repeats. Identical values can stand only once.

Key:
Test in all cases: In-cell proteome-wide competitive ABPP, HEK293: other DUBs and proteins
[1] = molecular target: T1, DUBs and other proteins in HEK293 cells (Homo sapiens, UniProt Q96K76); settings: replicates A-C; for Log2 reporter intensity values: USP47: DMSO substract (FC); for Log2 reporter intensity values: USP47, DMSO subtracted
T1 sequence (Q96K76 1-1375): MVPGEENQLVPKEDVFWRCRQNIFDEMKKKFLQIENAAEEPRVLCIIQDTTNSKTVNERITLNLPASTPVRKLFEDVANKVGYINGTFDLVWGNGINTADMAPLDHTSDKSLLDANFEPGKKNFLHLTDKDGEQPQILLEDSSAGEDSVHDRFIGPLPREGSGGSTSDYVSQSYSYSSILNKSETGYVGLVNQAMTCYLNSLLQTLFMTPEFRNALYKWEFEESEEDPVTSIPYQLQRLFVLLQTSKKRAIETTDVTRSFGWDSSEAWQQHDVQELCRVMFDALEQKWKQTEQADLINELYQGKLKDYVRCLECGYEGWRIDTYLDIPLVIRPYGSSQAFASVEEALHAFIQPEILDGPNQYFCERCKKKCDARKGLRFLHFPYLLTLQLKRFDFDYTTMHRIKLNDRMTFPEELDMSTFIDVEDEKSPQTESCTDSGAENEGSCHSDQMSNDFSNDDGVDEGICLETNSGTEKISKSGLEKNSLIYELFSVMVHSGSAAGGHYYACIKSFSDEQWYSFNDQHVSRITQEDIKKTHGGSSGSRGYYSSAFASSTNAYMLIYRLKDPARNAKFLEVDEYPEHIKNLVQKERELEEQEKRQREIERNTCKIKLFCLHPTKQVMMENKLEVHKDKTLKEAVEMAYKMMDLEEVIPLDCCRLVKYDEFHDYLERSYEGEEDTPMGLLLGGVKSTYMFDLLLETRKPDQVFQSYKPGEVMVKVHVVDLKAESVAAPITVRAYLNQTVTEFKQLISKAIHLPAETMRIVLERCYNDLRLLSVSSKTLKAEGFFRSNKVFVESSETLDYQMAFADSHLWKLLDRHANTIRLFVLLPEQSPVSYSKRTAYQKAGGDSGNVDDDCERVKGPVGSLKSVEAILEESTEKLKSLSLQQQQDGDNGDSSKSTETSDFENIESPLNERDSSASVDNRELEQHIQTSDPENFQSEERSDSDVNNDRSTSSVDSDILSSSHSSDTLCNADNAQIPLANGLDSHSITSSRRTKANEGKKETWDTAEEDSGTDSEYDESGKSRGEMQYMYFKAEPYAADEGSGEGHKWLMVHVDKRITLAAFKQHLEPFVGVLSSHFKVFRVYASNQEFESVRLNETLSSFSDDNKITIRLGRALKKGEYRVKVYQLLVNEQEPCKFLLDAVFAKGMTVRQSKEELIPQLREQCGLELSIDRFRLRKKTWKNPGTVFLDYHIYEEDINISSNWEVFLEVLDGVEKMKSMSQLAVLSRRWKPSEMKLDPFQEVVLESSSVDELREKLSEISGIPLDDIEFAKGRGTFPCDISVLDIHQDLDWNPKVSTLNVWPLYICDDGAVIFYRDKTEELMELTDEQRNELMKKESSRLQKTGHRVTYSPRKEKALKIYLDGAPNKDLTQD

[2] = molecular target: DUBs and other proteins in HEK293 cells (Homo sapiens, UniProt Q93008); settings: replicates A-C; for Log2 reporter intensity values: USP9X;USP9Y: DMSO substract (FC); for Log2 reporter intensity values: USP9X;USP9Y, DMSO subtracted
[3] = molecular target: DUBs and other proteins in HEK293 cells (Homo sapiens, UniProt O00303); settings: for Log2 reporter intensity values, EIF3F: TMT replicates; for Log2 reporter intensity values: EIF3F: competition with ABP 2, DMSO substract (FC); for Log2 reporter intensity values: EIF3F / Log2 reporter intensity values: replicates A-C; for Log2 t-test Difference / Log2 reporter intensity values: EIF3F
[4] = molecular target: DUBs and other proteins in HEK293 cells (Homo sapiens, UniProt Q9Y5T5); settings: replicates A-C; for Log2 reporter intensity values: USP16: competition with ABP 2, DMSO substract (FC); for Log2 reporter intensity values: USP16, DMSO subtracted
[5] = molecular target: DUBs and other proteins in HEK293 cells (Homo sapiens, UniProt Q96BN8); settings: replicates A-C; for Log2 reporter intensity values: OTULIN: DMSO substract (FC); for Log2 reporter intensity values: OTULIN, DMSO subtracted
[6] = molecular target: T2, DUBs and other proteins in HEK293 cells (Homo sapiens, UniProt P51665); settings: replicates A-C; for Log2 reporter intensity values: PSMD7: DMSO substract (FC); for Log2 reporter intensity values: PSMD7, DMSO subtracted
T2 sequence (P51665 1-324): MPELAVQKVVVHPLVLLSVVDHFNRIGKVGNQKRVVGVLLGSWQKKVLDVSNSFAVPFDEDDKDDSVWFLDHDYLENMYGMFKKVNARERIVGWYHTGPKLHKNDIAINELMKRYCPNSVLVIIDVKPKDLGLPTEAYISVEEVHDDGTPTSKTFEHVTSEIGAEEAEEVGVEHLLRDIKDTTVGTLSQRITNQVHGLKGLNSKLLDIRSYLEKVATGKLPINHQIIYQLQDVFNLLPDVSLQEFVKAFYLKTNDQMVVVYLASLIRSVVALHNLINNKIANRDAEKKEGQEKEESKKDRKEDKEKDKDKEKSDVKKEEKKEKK

[7] = molecular target: DUBs and other proteins in HEK293 cells (Homo sapiens, UniProt Q7L5N1); settings: for Log2 reporter intensity values, COPS6: TMT replicates; for Log2 reporter intensity values: COPS6: DMSO substract (FC); for Log2 reporter intensity values: COPS6 / Log2 reporter intensity values: replicates A-C; for Log2 t-test Difference / Log2 reporter intensity values: COPS6
[8] = 1 at 1 μM, competition with ABP 2
[9] = 1 at 4 μM, competition with ABP 2
[10] = 1 μM 1 (60 min) + 20 nM ABP 2 (10 min), All values
[11] = 1 μM 1 (60 min) + 20 nM ABP 2 (10 min), DMSO subtracted
[12] = 4 μM 1 (60 min) + 20 nM ABP 2 (10 min), All values
[13] = 4 μM 1 (60 min) + 20 nM ABP 2 (10 min), DMSO subtracted

Sequence of DUBs and other proteins in HEK293 cells (Homo sapiens, UniProt Q96BN8) (Q96BN8 whole entry): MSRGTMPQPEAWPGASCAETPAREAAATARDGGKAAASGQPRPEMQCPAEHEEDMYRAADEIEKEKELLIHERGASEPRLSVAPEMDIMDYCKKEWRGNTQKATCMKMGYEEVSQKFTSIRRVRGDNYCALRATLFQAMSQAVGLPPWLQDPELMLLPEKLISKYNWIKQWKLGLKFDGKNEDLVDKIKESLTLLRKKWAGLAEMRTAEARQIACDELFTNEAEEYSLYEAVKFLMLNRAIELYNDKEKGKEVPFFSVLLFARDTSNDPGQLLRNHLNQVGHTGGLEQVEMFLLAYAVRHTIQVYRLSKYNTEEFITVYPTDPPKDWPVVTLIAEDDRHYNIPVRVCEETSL
Sequence of DUBs and other proteins in HEK293 cells (Homo sapiens, UniProt Q93008) (Q93008 whole entry): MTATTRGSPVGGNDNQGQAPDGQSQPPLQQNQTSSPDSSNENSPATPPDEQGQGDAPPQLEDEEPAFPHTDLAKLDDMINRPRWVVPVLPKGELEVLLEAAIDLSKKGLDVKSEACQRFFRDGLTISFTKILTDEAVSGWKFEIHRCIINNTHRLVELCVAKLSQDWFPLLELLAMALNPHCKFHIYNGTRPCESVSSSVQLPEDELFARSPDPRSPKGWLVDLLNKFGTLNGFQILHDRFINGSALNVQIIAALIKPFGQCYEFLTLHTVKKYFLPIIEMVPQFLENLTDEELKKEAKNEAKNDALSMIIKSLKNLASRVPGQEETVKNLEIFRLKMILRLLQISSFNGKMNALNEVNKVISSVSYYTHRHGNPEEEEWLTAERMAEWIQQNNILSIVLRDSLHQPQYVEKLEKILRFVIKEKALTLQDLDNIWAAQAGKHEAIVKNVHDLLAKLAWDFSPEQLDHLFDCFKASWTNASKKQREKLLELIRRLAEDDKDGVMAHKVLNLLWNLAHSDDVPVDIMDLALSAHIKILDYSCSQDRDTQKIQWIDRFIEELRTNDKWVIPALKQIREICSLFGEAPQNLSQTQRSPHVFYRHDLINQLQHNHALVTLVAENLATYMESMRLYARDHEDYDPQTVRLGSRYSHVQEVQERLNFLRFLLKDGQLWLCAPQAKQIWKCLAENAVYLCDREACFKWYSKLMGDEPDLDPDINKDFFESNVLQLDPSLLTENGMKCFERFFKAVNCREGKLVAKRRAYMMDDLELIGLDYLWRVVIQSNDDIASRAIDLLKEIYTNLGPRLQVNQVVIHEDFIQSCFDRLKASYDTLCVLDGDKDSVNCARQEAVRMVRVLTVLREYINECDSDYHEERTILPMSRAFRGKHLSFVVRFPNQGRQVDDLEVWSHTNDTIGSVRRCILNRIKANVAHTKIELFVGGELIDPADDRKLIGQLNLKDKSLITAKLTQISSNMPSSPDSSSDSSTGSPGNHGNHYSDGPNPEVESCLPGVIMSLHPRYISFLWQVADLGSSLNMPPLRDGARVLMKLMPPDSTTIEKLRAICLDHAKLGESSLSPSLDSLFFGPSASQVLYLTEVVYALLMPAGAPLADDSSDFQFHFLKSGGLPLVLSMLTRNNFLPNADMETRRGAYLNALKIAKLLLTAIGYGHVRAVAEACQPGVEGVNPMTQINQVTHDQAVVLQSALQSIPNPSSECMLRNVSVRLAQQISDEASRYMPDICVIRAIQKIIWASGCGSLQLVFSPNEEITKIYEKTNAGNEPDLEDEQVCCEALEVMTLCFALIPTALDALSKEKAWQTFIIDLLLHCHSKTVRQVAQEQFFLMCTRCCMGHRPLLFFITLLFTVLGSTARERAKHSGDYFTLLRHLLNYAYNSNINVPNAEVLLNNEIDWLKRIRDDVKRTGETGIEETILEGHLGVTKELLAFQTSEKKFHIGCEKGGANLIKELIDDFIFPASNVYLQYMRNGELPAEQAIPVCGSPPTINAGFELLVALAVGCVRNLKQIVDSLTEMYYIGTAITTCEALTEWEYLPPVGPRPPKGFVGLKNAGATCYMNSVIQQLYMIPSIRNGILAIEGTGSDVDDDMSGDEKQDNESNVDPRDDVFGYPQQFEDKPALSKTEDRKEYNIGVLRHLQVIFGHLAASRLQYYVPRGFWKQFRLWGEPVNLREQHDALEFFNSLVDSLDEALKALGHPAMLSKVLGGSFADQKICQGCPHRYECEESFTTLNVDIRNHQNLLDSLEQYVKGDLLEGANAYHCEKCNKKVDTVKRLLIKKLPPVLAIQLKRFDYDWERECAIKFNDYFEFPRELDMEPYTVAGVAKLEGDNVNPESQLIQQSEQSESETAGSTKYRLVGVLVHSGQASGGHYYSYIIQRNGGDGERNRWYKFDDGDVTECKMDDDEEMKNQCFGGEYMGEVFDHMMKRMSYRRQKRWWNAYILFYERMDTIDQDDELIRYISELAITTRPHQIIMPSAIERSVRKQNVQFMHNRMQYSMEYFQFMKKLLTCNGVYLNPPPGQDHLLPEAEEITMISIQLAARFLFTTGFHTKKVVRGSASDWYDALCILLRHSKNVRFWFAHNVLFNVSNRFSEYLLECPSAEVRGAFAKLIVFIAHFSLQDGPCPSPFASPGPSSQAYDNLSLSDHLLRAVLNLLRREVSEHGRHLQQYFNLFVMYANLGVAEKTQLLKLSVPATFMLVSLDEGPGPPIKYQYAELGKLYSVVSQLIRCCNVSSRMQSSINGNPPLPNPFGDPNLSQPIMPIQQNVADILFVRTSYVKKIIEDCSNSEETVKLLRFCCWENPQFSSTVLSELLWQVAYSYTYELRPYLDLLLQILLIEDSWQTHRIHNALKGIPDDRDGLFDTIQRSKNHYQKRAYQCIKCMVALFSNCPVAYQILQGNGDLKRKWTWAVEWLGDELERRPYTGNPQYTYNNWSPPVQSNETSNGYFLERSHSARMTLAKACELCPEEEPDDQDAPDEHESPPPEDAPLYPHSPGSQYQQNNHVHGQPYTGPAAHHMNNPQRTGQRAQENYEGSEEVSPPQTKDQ
Sequence of DUBs and other proteins in HEK293 cells (Homo sapiens, UniProt Q7L5N1) (Q7L5N1 whole entry): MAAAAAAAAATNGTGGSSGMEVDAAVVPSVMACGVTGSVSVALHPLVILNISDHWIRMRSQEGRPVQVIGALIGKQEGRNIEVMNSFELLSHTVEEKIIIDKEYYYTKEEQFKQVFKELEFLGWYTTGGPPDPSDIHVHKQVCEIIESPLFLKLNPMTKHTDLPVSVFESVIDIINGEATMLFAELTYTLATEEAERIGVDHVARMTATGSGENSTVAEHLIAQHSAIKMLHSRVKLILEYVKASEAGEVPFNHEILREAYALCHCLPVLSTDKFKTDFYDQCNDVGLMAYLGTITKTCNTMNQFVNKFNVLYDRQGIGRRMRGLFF
Sequence of DUBs and other proteins in HEK293 cells (Homo sapiens, UniProt O00303) (O00303 whole entry): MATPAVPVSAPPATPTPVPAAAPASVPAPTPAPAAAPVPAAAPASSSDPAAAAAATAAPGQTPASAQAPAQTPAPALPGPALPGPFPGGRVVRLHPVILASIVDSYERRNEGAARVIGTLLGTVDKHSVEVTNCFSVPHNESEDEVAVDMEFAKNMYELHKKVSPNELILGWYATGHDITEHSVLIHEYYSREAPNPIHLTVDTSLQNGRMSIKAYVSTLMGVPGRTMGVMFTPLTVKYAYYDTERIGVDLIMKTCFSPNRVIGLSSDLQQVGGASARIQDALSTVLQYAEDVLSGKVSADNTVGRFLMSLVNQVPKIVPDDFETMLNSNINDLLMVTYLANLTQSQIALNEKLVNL
Sequence of DUBs and other proteins in HEK293 cells (Homo sapiens, UniProt Q9Y5T5) (Q9Y5T5 whole entry): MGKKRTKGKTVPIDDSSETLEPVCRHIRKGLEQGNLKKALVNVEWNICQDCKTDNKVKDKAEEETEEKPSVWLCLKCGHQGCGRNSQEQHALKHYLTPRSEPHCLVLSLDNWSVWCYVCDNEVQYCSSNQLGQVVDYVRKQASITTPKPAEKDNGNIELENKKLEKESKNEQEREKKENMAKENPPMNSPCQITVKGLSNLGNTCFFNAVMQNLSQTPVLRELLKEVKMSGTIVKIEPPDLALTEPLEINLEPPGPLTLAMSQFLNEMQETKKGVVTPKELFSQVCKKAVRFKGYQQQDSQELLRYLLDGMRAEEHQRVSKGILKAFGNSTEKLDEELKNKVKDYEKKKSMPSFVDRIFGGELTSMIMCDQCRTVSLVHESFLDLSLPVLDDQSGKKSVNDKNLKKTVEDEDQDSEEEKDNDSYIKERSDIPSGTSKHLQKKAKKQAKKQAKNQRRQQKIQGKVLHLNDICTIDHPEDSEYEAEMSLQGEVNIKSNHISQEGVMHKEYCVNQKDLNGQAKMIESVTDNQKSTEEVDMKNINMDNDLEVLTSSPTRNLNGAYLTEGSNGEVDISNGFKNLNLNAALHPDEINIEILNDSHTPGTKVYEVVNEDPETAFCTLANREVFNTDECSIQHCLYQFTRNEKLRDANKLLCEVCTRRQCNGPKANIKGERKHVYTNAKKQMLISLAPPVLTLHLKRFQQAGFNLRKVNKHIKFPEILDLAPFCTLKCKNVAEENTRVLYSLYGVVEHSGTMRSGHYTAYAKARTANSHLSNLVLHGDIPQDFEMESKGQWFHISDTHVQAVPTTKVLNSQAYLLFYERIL

Structure (SMILES): N#CN1CCC[C@H]1C(=O)N1CCc2c(-c3c[nH]c4ncccc34)cccc21 [Compound 1]
- Log2 reporter intensity values: USP47 [1, 8]: 0.973 and 1.08 and 1.022
- Log2 reporter intensity values: USP47 [1, 9]: 1.072 and 1.012 and 0.9583
- Log2 reporter intensity values ([1]; 1_1 μM): -0.02716 and 0.07955 and 0.02151
- Log2 reporter intensity values ([1]; 1_4 μM): 0.07173 and 0.01208 and -0.04184
- Log2 reporter intensity values ([1]; 1 at 1 μM): -0.03956 and 0.1106 and 0.03085
- Log2 reporter intensity values ([1]; 1 at 4 μM): 0.1001 and 0.01747 and -0.0615
- Log2 reporter intensity values: USP9X;USP9Y [2, 8]: 1.022 (2×) and 0.9739
- Log2 reporter intensity values: USP9X;USP9Y [2, 9]: 0.949 and 1.006 and 0.9815
- Log2 reporter intensity values ([2]; 1_1 μM): 0.0219 and 0.02206 and -0.02613
- Log2 reporter intensity values ([2]; 1_4 μM): -0.05104 and 0.005497 and -0.01849
- Log2 reporter intensity values ([2]; 1 at 1 μM): 0.0313 and 0.03153 and -0.03815
- Log2 reporter intensity values ([2]; 1 at 4 μM): -0.07554 and 0.007953 and -0.02689
- Log2 reporter intensity values, EIF3F [3, 10]: -0.05755 and -0.0632 and -0.06224
- Log2 reporter intensity values, EIF3F [3, 11]: -0.048 and -0.05365 and -0.05269
- Log2 reporter intensity values, EIF3F [3, 12]: 0.06402 and -0.06596 and 0.05418
- Log2 reporter intensity values, EIF3F [3, 13]: 0.07357 and -0.05641 and 0.06373
- Log2 reporter intensity values: EIF3F ([3]; 1 at 1 μM): 0.9673 and 0.9635 and 0.9641
- Log2 reporter intensity values: EIF3F ([3]; 1 at 4 μM): 1.052 and 0.9617 and 1.045
- Log2 t-test Difference ([3]; 1 - 1 μM): -0.1421
- Log2 t-test Difference ([3]; 1 - 4 μM): -0.06374
- Log2 reporter intensity values ([3]; 1_1 μM, DMSO subtracted): -0.03315 and -0.03692 and -0.03628
- Log2 reporter intensity values ([3]; 1_4 μM, DMSO subtracted): 0.0519 and -0.03877 and 0.04475
- Log2 reporter intensity values ([3]; 1 at 1 μM, DMSO subtracted): -0.048 and -0.05365 and -0.05269
- Log2 reporter intensity values ([3]; 1 at 4 μM, DMSO subtracted): 0.07357 and -0.05641 and 0.06373
- Log2 reporter intensity values: USP16 ([4]; 1 at 1 μM): 1.022 and 1.047 and 1.014
- Log2 reporter intensity values: USP16 ([4]; 1 at 4 μM): 1.071 and 1.22 and 1.147
- Log2 reporter intensity values ([4]; 1_1 μM): 0.01937 and 0.04439 and 0.01154
- Log2 reporter intensity values ([4]; 1_4 μM): 0.06901 and 0.2175 and 0.1444
- Log2 reporter intensity values ([4]; 1 at 1 μM): 0.03077 and 0.06568 and 0.01967
- Log2 reporter intensity values ([4]; 1 at 4 μM): 0.09923 and 0.2865 and 0.1974
- Log2 reporter intensity values: OTULIN [5, 8]: 1.158 and 1.113 and 1.037
- Log2 reporter intensity values: OTULIN [5, 9]: 1.068 and 1.004 and 1.156
- Log2 reporter intensity values ([5]; 1_1 μM): 0.1579 and 0.1121 and 0.03603
- Log2 reporter intensity values ([5]; 1_4 μM): 0.06743 and 0.003361 and 0.1557
- Log2 reporter intensity values ([5]; 1 at 1 μM): 0.2122 and 0.154 and 0.0518
- Log2 reporter intensity values ([5]; 1 at 4 μM): 0.09485 and 0.0056 and 0.2094
- Log2 reporter intensity values: PSMD7 [6, 8]: 1.13 and 1.005 and 1.053
- Log2 reporter intensity values: PSMD7 [6, 9]: 1.07 and 1.047 and 1.231
- Log2 reporter intensity values ([6]; 1_1 μM): 0.1278 and 0.002507 and 0.05011
- Log2 reporter intensity values ([6]; 1_4 μM): 0.06753 and 0.04399 and 0.2288
- Log2 reporter intensity values ([6]; 1 at 1 μM): 0.1768 and 0.007299 and 0.07406
- Log2 reporter intensity values ([6]; 1 at 4 μM): 0.09774 and 0.06565 and 0.3003
- Log2 reporter intensity values, COPS6 [7, 10]: -0.0741 and -0.01578 and 0.003018
- Log2 reporter intensity values, COPS6 [7, 11]: -0.08651 and -0.02819 and -0.009395
- Log2 reporter intensity values, COPS6 [7, 12]: 0.02899 and -0.02559 and 0.0005347
- Log2 reporter intensity values, COPS6 [7, 13]: 0.01657 and -0.038 and -0.01188
- Log2 reporter intensity values: COPS6 [7, 8]: 0.9418 and 0.9806 and 0.9935
- Log2 reporter intensity values: COPS6 [7, 9]: 1.012 and 0.974 and 0.9918
- Log2 t-test Difference ([7]; 1 - 1 μM): -0.08501
- Log2 t-test Difference ([7]; 1 - 4 μM): -0.05474
- Log2 reporter intensity values ([7]; 1_1 μM, DMSO subtracted): -0.05832 and -0.01946 and -0.006603
- Log2 reporter intensity values ([7]; 1_4 μM, DMSO subtracted): 0.01144 and -0.02611 and -0.008312
- Log2 reporter intensity values ([7]; 1 at 1 μM, DMSO subtracted): -0.08651 and -0.02819 and -0.009395
- Log2 reporter intensity values ([7]; 1 at 4 μM, DMSO subtracted): 0.01657 and -0.038 and -0.01188

Structure (SMILES): C#Cc1cnc2[nH]cc(-c3cccc4c3CCN4C(=O)[C@@H]3CCCN3C#N)c2c1 [Compound 2]
- Log2 reporter intensity values: USP47 ([1]; 20 nM ABP 2 alone): 0.9076 and 0.9784 and 0.8828
- Log2 reporter intensity values ([1]; 20 nM ABP 2): -0.1398 and -0.03153 and -0.1799 and -0.09247 and -0.02173 and -0.1173
- Log2 reporter intensity values: USP9X;USP9Y ([2]; 20 nM ABP 2 alone): 0.9211 and 0.9416 and 0.9589
- Log2 reporter intensity values ([2]; 20 nM ABP 2): -0.08683 and -0.06047 and -0.07892 and -0.05844 and -0.04108
- Log2 reporter intensity values: OTULIN ([5]; 20 nM ABP 2 alone): 0.9844
- Log2 reporter intensity values ([5]; 20 nM ABP 2): 0.01067 and 0.1122 and -0.02265 and 0.006896 and 0.08034 and -0.01611
- Log2 reporter intensity values: PSMD7 ([6]; 20 nM ABP 2 alone): 0.8915
- Log2 reporter intensity values ([6]; 20 nM ABP 2): 0.1122 and -0.1657 and 0.02 and 0.07832
- Log2 reporter intensity values, COPS6 ([7]; 20 nM ABP 2 (10 min), no competitor, All values): 0.06809 and 0.08942 and 0.01065
- Log2 reporter intensity values, COPS6 ([7]; 20 nM ABP 2 (10 min), no competitor, DMSO subtracted): 0.05567 and 0.07701 and -0.001766
- Log2 reporter intensity values: COPS6 ([7]; 20 nM ABP 2 alone): 1.039 and 1.055 and 0.9988
- Log2 reporter intensity values ([7]; 20 nM ABP 2, DMSO subtracted): 0.05567 and 0.07701 and -0.001766 and 0.03923 and 0.05472 and -0.001335
- Log2 t-test Difference ([7]; ABP 2 - 20 nM): 0.04364
